The record followed here is patent US10087142B2, “Azetidine derivatives useful as modulators of cortical cathecolaminergic neurotransmission” (Integrative Research Laboratories Sweden AB, priority 2015, dated 2018).

Like-named read-outs stand apart in the source and are kept apart here. Marks after values point to notes of the source that are not given here.

The subject of assay [1] is monoamine transmitters (NA, DA and 5-HT). Description: In vivo brain microdialysis of monoamines in striatum and frontal cortex. More on the design: species or system rat. As to conditions: 50 μmol/kg s.c., rats; for response vs control in vivo at 50 µmol/kg: Rattus norvegicus, sc. An excerpt:
The microdialysis technique (See, for instance, Collin and Ungerstedt, Microdialysis: user's guide, Carnegie Medicin, Stockholm, 1988) is a well-established technique for measuring extracellular levels of neurotransmitters (Ungerstedt, J Int Med, 1991, 230; 365-73). The microdialysis technique was used to measure the effect of compounds disclosed herein upon the efflux of monoamine transmitters (NA, DA and 5-HT) in striatum and frontal cortex in conscious, freely moving rats.
Male Sprague-Dawley rats weighing 280-320 g were used throughout the experiments. Before the experiment the animals were housed in groups, maximum five animals in each cage, with free access to water and food. The animals were housed at least one week prior to surgery and use in the experiments.
A modified version (Waters et al., J Neural Transm Gen Sect, 1994, 98(1); 39-55) of the I-shaped probe (Santiago and Westerink, N-S Arch Pharmacol, 1990, 342; 407-14) with the AN69 polyacrylonitrile/sodium methyl sulfonate copolymer (HOSPAL; o.d/i.d. 310/220 μm: dialysis membrane (Gambro, Lund, Sweden) was used in the microdialysis experiments. In the dorsal striatum, probes with an exposed length of 3 mm of dialysis membrane were used and in the prefrontal cortex the corresponding length was 2.5 mm. The rats were operated under isoflurane inhalation anesthesia while mounted into a Kopf stereotaxic instrument. Coordinates were calculated relative to bregma; dorsal striatum AP+1.0, ML±2.6, DV 6.2; Pf cortex, AP 15+3.2, ML+1.2, DV −4.08°, according to Paxinos and Watson (New York, Academic Press, 1986; FIG. 8 and FIG. 14). The dialysis probe was positioned in a burr hole under stereotaxic guidance and cemented with phosphatine dental cement (DAB Dental).
The rats were housed individually in cages for 48 h before the dialysis experiments, allowing them to recover from surgery and minimizing the risk of drug interactions with the anesthetics during the following experiments. During this period the rats had free access to food and water.
On the day of the experiment the rats were connected to a micro-perfusion pump via a swivel and were replaced in the cage where they could move freely within its confinements. The perfusion medium was a Ringer's solution containing (in mmol/I): NaCl; 140, CaCl2; 1.2, KCl; 3.0, MgCl2; 1.0 (Moghaddam and Bunney. Neurochem., 1989, 53; 652-4). The pump was set to a perfusion speed of 2 μl/min and 40 μl sample volume were collected every 20 min.
The rats were perfused for at least 40 min before sampling began. Five fractions of each 20 min were collected and the last three were used for the establishment of the baseline. After collection of baseline fractions, the pharmacological challenge to the dialysis experiment started. Test compounds were administrated by injection (s.c.) in a volume of 5 ml/kg, with 0.9% NaCl (saline) as vehicle.
The analytical method were based on two chromatographic separations dedicated for amines or acids. Two chromatographic systems shared a common auto injector with a 10-port valve and two sample loops for simultaneous injection on the two systems.
The acids were separated by reversed phase chromatography while the amines were separated by reversed phase ion pairing chromatography preceded by a reverse phase separation in a column switching configuration. Three separation columns (Luna C18 (2), dp 3 μm, 2 mm i.d., Phenomenex) of different lengths were used. Electrochemical detection was accomplished on glassy carbon electrodes (MF-1000, Bioanalytical Systems, Inc.)
The aqueous mobile phase (0.6 ml/min) for the acid system contained citric acid (40 mM, dipotassium hydrogen phosphate 10 mM, methanol 8-11% (v/v) and EDTA 0.1 mM. Column length was 30 mm and detection potential relative to Ag/AgCl reference was 0.74V. […]

The subject of assay [2] is non-pre-treated Sprague-Dawley rats. Description: Locomotor activity in drug-naïve rats (behaviour test). The assay is classed as in vivo, rat. The following applies: recorded 60 minutes, n = 5. As to the method:
The effect of compounds in the present disclosure on locomotor activity in drug-naïve rats was also investigated. The animals were placed in the motility meters immediately after drug administration and locomotor activity was recorded for 60 minutes (counts/60 min±SEM). The results are presented as percent of control.
Behavioural activity was measured using eight Digiscan activity monitors (RXYZM (16) TAO, Omnitech Electronics, Columbus, Ohio, USA), connected to an Omnitech Digiscan analyzer and an Apple Macintosh computer equipped with a digital interface board (NB DIO-24, National Instruments, USA). Each activity monitor consisted of a quadratic metal frame (W×L=40 cm×40 cm) equipped with photo beam sensors. During measurements of behavioural activity, a rat was put in a transparent acrylic cage (W×L×H, 40×40×30 cm) which in turn was placed in the activity monitor. Each activity monitor was equipped with three rows of infrared photo beam sensors, each row consisting of 16 sensors. Two rows were placed along the front and the side of the floor of the cage, at a 90° angle, and the third row was placed 10 cm above the floor to measure vertical activity. Photo beam sensors were spaced 2.5 cm apart. Each activity monitor was fitted in an identical sound and light attenuating box containing a weak house light and a fan.
The computer software was written using object oriented programming (LabVIEW™, National instruments, Austin, Tex., USA).
Behavioural data from each activity monitor, representing the position (horizontal center of gravity and vertical activity) of the animal at each time, were recorded at a sampling frequency of 25 Hz and collected using a custom written LABView™ application. The data from each recording session were stored and analyzed with respect to distance traveled. Each behavioural recording session lasted 60 min, starting approximately 5 min after the injection of test compound.
Compounds disclosed herein have been tested for effects on spontaneous locomotor activity in non-pre-treated Sprague-Dawley rats (based on accumulated distance traveled 0-60 min post dosing), and with doses up to 33 μmol/kg (s.c.).

The test system of assay [3] is DOPAC. As to the kind of experiment: Neurochemistry: tissue levels of DOPAC in brain regions. The assay is classed as in vivo, rat. As to conditions: 33 μmol/kg s.c., rats, 65 min before sacrifice, n = 5. The text has this:
The change in turnover of dopamine in the terminal areas of the ascending dopaminergic projections of the mammalian brain can be illustrated by measuring of changes in biochemical indices in the brain e.g. changes in concentrations of dopamine metabolites such as 3,4-dihydroxyphenyl-acetic acid (DOPAC) in the striatum and frontal cortex.
The measurement of the tissue content of DOPAC is well established in the field of research since the 1960's. In short, male Sprague-Dawley rats are administered the test compound 60 minutes prior to decapitation. The brain is rapidly taken out and dissected. The striatum is rapidly frozen and subsequently quantitatively analyzed with respect to its content of DOPAC by means of HPLC and electrochemical detection. The number of animals used for each test compound/vehicle is 5/group.
After the behavioural activity sessions, the rats were decapitated and their brains rapidly taken out and put on an ice-cold petri-dish. The brains were dissected into a right and a left part of which the right part was analyzed for neurochemicals with HPLC and the left part was analyzed for gene expression. The limbic forebrain, the striatum, the frontal cortex, the hippocampus and the remaining hemispheral parts of each rat were dissected and frozen. Each brain part was subsequently analyzed with respect to its content of monoamines and their metabolites.
The monoamine transmitter substances (NA (noradrenaline), DA (dopamine), 5-HT (serotonin)) as well as one corresponding acid, (DOPAC (3,4-dihydroxyphenylacetic acid), were quantified in brain tissue homogenates by HPLC separations and electrochemical detection.
The analytical method is based on two chromatographic separations dedicated for amines or acids. Two chromatographic systems share a common auto injector with a 10-port valve and two sample loops for simultaneous injection on the two systems. Both systems are equipped with a reverse phase column (Luna C18 (2), dp 3 μm, 50*2 mm i.d., Phenomenex) and electrochemical detection is accomplished at two potentials on glassy carbon electrodes (MF-1000, Bioanalytical Systems, Inc.). The column effluent is passed via a T-connection to the detection cell or to a waste outlet. This is accomplished by two solenoid valves, which block either the waste or detector outlet. By preventing the chromatographic front from reaching the detector, better detection conditions are achieved. The aqueous mobile phase (0.4 ml/min) for the acid system contains citric acid 14 mM, sodium citrate 10 mM, Methanol 15% (v/v) and EDTA 0.1 mM. Detection potentials relative to Ag/AgCl reference are 0.45 and 0.60V. […] Detection potentials relative to Ag/AgCl reference are 0.45 and 0.65V.

Turning to `Cl.Fc1cccc(C(F)C2CNC2)c1F` (single isomer, unassigned; (+)) [Example 2, (+)-3-[(2,3-Difluorophenyl)(Fluoro)Methyl]Azetidine Hydrochloric Acid Salt], in assay [1] (frontal cortex dialysate), the “5-HT FC ± SEM, maximum effect compared to baseline” value is given as 253 ± 92^b percent of control. The “5-HT Stri ± SEM, maximum effect compared to baseline” value in assay [1] (striatum dialysate) is on record as 249 ± 5^b percent of control. The “DA Stri ± SEM, maximum effect compared to baseline” value in assay [1] (striatum dialysate) was 149 ± 7^b percent of control. The “NA Stri ± SEM, maximum effect compared to baseline” value in assay [1] (striatum dialysate) is on record as 126 ± 7^b percent of control. Moreover, the response vs control in vivo at 50 µmol/kg came to 580 ± 223% in assay [1] (frontal cortex dialysate, read-out: DA FC ± SEM, maximum effect compared to baseline) and 394 ± 273% in assay [1] (frontal cortex dialysate, read-out: NA FC ± SEM, maximum effect compared to baseline). In addition, the entries for the “locomotor activity, percent of control means” value in assay [2] (11 μmol/kg s.c.) and in assay [2] (33 μmol/kg s.c.) were 152% and 159%*, respectively.
Turning to `Fc1ccc(F)c(C(F)C2CNC2)c1.O=C(O)C(=O)O` (centres unmarked) [Example 6, 3-[(2,5-Difluorophenyl)(Fluoro)Methyl]Azetidine Oxalate Salt], the “DOPAC frontal cortex ± SEM” value in assay [3] (frontal cortex tissue) is 139 ± 10% of control means. For the same compound, in assay [3] (striatum tissue), the “DOPAC striatum ± SEM” value is on record as 76 ± 3% of control means. The “NA Stri ± SEM, maximum effect compared to baseline” value in assay [1] (striatum dialysate) is given as 1375^a percent of control. Besides, the response vs control in vivo at 50 µmol/kg in assay [1] (frontal cortex dialysate, read-out: 5-HT FC ± SEM, maximum effect compared to baseline) was found to be 182 ± 12%; in assay [1] (striatum dialysate, read-out: 5-HT Stri ± SEM, maximum effect compared to baseline), 208%; in assay [1] (striatum dialysate, read-out: DA Stri ± SEM, maximum effect compared to baseline) it was 242%.
